Measurements taken from ChEMBL document CHEMBL5543153, “Discovery of a Potent Dual Son of Sevenless 1 (SOS1) and Epidermal Growth Factor Receptor (EGFR) Inhibitor for the Treatment of Prostate Cancer” (J Med Chem, 2024).
Activity calls are given as the source filed them. The rule behind the calls is not given here.

How the values were obtained:
[1] = Toxicity in BALB/c mouse xenografted with human PC-3 cells assessed as change in body weight at 5 mg/kg,ip administrated once every 4 days for 24 days; type: organism-based; conditions: in vivo, 576 h, time 24 day
PC-3 [2] = assay: Induction of cell cycle arrest in human PC-3 cells assessed as downregulation of cyclin D1 expression by Western blotting analysis; type: functional, cell-based
PC-3 [3] = assay: Induction of apoptosis in human PC-3 cells assessed as early apoptotic cells at 12.5 uM by Annexin V-FITC staining based flow cytometry (reference value: 2.64%); type: functional
PC-3 [4] = assay: Antiproliferative activity against human PC-3 cells transfected with SOS1 shRNA assessed as inhibition of cell growth incubated for 72 hrs by MTT assay; type: functional, cell-based; conditions: PC-3, 72 h
[5] = biological target: T1, Epidermal growth factor receptor (Homo sapiens, UniProt P00533); assay: Inhibition of EGFR (unknown origin) using ultra ULight GT peptide as substrate at 10 uM incubated for 2 hrs relative to control
PC-3 [6] = assay: cells; type: functional, cell-based; conditions: Homo sapiens, PC-3, 72 h
Description: Antiproliferative activity against human PC-3 cells assessed as inhibition of cell growth incubated for 72 hrs by MTT assay

K562 = assay: Antiproliferative activity against human K562 cells assessed as inhibition of cell growth incubated for 72 hrs by MTT assay; type: functional, cell-based
PC-3 [7] = assay: Induction of apoptosis in human PC-3 cells assessed as upregulation of cleaved caspase-3 expression by Western blotting analysis; type: functional, cell-based
[8] = biological target: T1, Epidermal growth factor receptor; assay: Inhibition of EGFR in human PC-3 cells assessed as downregulation of EGF-mediated AKT phosphorylation at 0.5 uM incubated for 15 mins in presence of EGF by Western blotting analysis; type: cell-based
Calu-1 = assay: Antiproliferative activity against human Calu-1 cells harboring KRAS G12C mutant assessed as inhibition of cell growth incubated for 72 hrs by MTT assay; type: functional, cell-based; conditions: Calu-1, 72 h
HUVEC [9] = assay: Inhibition of cell migration in HUVEC cells assessed as reduction in invasion index at 0.5 to 12.5 uM measured after 48 hrs by crystal violet staining based transwell invasion assay; type: functional; conditions: Homo sapiens, dose 0.5-12.5 µM
[10] = Toxicity in BALB/c mouse xenografted with human PC-3 cells assessed as change in ALT level at 20 mg/kg,ip administrated once every 4 days for 24 days by automatic biochemical analyzer; type: organism-based; conditions: in vivo, 576 h, time 24 day
PC-3 [11] = assay: Antitumor activity against human PC-3 cells xenografted in BALB/c mouse assessed as reduction in number of CD31-positive cells in tumor tissue at ip administrated once every 4 days for 24 days by DAPI staining based immunohistochemical analysis; type: functional, organism-based; conditions: time 24.0 day
[12] = biological target: T2, Son of sevenless homolog 1 (Homo sapiens) (UniProt Q07889); assay: Inhibition of SOS1 in human PC-3 cells assessed as downregulation of ERK phosphorylation at 0.5 uM incubated for 15 mins by Western blotting analysis; type: cell-based
T2 sequence (whole entry): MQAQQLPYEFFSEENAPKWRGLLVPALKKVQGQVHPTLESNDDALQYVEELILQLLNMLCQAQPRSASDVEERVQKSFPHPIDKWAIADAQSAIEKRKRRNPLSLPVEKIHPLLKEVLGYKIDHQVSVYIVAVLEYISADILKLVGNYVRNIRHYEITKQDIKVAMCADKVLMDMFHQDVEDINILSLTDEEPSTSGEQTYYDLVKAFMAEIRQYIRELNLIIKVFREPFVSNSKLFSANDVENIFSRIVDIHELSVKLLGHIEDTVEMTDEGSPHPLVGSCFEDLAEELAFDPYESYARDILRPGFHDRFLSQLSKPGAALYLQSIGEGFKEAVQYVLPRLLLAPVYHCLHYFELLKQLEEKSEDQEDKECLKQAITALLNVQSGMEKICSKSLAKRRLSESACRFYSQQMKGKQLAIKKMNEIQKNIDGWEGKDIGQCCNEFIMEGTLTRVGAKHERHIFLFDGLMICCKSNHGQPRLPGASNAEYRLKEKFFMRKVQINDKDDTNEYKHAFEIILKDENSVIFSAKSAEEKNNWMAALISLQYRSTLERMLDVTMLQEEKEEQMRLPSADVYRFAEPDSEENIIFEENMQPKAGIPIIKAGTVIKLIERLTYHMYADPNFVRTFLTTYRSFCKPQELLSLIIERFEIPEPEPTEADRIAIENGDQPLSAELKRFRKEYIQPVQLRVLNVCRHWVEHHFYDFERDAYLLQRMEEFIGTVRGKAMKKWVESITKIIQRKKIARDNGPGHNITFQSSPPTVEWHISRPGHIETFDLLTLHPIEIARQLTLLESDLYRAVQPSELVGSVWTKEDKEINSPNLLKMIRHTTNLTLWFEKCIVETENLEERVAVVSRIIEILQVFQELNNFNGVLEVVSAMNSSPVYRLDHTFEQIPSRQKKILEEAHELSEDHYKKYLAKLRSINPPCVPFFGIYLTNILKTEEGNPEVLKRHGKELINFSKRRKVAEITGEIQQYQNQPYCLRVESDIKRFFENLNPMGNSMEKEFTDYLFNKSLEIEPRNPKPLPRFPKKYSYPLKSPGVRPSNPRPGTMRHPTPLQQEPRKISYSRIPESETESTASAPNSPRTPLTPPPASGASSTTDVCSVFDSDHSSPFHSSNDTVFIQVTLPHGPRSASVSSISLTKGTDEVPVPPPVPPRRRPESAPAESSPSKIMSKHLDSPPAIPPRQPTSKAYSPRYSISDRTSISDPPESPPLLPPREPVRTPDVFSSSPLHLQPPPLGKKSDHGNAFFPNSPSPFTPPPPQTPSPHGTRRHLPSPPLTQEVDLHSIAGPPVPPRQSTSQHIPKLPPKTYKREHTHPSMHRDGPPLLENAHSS

PC-3 [13] = assay: Induction of apoptosis in human PC-3 cells assessed as necrotic cells at 12.5 uM by Annexin V-FITC staining based flow cytometry (reference value: 0.48%); type: functional
PC-3 [14] = assay: Induction of apoptosis in human PC-3 cells assessed as viable cells at 12.5 uM by Annexin V-FITC staining based flow cytometry (reference value: 94.9%); type: functional; conditions: read-out: Activity
PC-3 [15] = assay: Antitumor activity against human PC-3 cells xenografted in BALB/c mouse assessed as increase in apoptosis in tumor tissue at ip administrated once every 4 days for 24 days by TUNEL staining based immunohistochemical analysis; type: functional, organism-based; conditions: time 24.0 day
HUVEC [16] = assay: Antiangiogenic activity in HUVEC cells assessed as reduction in tube segments at 0.5 to 12.5 uM incubated for 8 hrs by matrigel based microscopic analysis; type: functional, cell-based; conditions: Homo sapiens, dose 0.5-12.5 µM
[17] = biological target: T2, Son of sevenless homolog 1 (Homo sapiens); assay: Inhibition of SOS1 in human PC-3 cells assessed as downregulation of RAS-GTP expression at 0.5 uM incubated for 15 mins by Western blotting analysis; type: cell-based
DLD-1 = assay: Antiproliferative activity against human DLD-1 cells assessed as inhibition of cell growth incubated for 72 hrs by MTT assay; type: functional, cell-based
[18] = Toxicity in BALB/c mouse xenografted with human PC-3 cells assessed as lung pathological change at 20 mg/kg,ip administrated once every 4 days for 24 days by hematoxylin and eosin staining based analysis; type: organism-based; conditions: in vivo, 576 h, time 24 day
PC-3 [19] = assay: Induction of cell cycle arrest in human PC-3 cells assessed as accumulation of cells at S phase at 0.5 uM by PI staining based flow cytometry (reference value: 16.58%); type: functional

T1 sequence (P00533 whole entry): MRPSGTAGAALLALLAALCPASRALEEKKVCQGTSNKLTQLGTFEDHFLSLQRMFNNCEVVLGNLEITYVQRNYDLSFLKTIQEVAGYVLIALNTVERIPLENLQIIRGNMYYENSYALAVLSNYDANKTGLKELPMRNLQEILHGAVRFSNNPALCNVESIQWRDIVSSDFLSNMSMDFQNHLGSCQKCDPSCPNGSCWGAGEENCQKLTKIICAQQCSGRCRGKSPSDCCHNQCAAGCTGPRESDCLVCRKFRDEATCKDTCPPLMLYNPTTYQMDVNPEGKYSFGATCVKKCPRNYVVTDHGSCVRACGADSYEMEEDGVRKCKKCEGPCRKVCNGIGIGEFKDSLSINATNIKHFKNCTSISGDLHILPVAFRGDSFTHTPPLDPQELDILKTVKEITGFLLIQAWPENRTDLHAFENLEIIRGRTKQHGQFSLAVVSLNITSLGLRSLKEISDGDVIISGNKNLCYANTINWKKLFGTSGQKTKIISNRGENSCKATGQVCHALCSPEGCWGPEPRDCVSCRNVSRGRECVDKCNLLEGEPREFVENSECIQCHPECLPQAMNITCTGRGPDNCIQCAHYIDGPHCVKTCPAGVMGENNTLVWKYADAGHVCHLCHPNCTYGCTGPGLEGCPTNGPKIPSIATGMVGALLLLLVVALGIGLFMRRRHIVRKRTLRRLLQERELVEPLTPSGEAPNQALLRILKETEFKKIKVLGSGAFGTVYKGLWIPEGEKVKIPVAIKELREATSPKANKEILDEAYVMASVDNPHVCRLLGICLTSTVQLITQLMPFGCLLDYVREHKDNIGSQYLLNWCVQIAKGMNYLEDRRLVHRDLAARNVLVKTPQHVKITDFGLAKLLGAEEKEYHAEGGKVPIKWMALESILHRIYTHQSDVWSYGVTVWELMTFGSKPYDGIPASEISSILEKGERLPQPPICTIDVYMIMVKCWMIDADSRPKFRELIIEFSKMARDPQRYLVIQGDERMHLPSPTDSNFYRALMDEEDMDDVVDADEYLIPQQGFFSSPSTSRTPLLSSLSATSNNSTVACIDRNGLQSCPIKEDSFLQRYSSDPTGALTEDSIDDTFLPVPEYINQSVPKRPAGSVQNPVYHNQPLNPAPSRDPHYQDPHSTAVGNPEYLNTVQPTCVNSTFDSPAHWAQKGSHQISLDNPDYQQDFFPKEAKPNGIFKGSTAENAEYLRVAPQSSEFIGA

COc1cc2ncnc(N[C@H](C)c3cccc(F)c3)c2cc1OC1CCOCC1
Activity [1]: Toxic | Activity (PC-3 [2]): Dose-Dependent Effect | Activity (PC-3 [3]): 21.5% | IC50 (PC-3 [4]): 3920 nM | inhibition [5]: 100% | IC50 (PC-3 [6]): 450 nM | Activity (K562): Active | Activity (PC-3 [7]): Dose-Dependent Effect | inhibition [8]: Active | IC50 (Calu-1): 550 nM | inhibition (HUVEC [9]): Active | Activity [10]: Non-Toxic | Activity (PC-3 [11]): Dose-Dependent Effect | inhibition [12]: Active | Activity (PC-3 [13]): 0.15% | viability at 12.5 µM (PC-3 [14]): 74.3% | Activity (PC-3 [15]): Dose-Dependent Effect | Activity (HUVEC [16]): Active | inhibition [17]: Active | Activity (DLD-1): Active | Activity [18]: Toxic | Activity (PC-3 [19]): 10.84%
